What is called IC50 is the concentration that inhibits the measured activity by half. The EC50 is the concentration at which the effect is half-maximal. The term AC50 denotes the midpoint of the concentration-response curve, whichever way the signal moves.

IC50, EC50 and AC50 data for 11 compounds are collected here from ChEMBL document CHEMBL1201862, “PubChem BioAssay data set” (2004).

Experiment [1] addresses 1-acylglycerol-3-phosphate O-acyltransferase ABHD5/Perilipin-5 (Homo sapiens, UniProt Q00G26+Q8WTS1). The experiment in a line: Luminescence-based biochemical high throughput dose response assay for inhibitors of the interaction of the lipase co-activator protein, abhydrolase domain containing 5 (ABHD5) with perilipin-5 (MLDP; PLIN5) (2K validation set). [Related pubchem assays (depositor defined):AID493035, AID493241].

Another experiment deals with Perilipin-1/ABHD5 (Homo sapiens, UniProt O60240+Q8WTS1). Briefly: Luminescence-based biochemical high throughput dose response assay for inhibitors of the interaction of the lipase co-activator protein, abhydrolase domain containing 5 (ABHD5) with perilipin-1 (PLIN1) (2K validation set). [Related pubchem assays (depositor defined):AID493027, AID493057].
Experiment [2] concerns the target T1, Short transient receptor potential channel 4 (Mus musculus, UniProt Q9QUQ5).
T1 sequence (Q9QUQ5 whole entry): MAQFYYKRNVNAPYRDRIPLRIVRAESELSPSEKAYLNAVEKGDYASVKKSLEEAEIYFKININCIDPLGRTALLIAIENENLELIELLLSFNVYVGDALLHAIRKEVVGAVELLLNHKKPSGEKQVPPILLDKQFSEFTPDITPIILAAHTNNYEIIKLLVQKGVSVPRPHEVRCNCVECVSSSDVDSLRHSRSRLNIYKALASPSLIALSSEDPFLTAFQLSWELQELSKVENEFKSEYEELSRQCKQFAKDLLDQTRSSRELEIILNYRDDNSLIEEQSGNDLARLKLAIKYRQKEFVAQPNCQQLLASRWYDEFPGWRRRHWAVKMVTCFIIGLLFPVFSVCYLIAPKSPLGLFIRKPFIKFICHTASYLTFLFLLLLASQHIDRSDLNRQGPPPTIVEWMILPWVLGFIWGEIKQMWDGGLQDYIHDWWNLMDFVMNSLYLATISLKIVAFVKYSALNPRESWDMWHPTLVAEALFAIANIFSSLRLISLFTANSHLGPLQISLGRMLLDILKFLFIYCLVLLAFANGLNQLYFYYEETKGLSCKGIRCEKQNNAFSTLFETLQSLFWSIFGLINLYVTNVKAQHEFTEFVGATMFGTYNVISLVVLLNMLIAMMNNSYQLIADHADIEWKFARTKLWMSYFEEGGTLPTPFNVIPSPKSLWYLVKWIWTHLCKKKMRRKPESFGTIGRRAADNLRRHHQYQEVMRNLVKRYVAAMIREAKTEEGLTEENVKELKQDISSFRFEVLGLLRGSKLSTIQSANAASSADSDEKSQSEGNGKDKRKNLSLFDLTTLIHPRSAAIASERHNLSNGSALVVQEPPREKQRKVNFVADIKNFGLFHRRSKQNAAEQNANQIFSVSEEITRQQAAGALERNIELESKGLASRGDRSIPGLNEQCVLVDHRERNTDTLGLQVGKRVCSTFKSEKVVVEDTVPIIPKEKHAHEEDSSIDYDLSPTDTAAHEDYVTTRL
Briefly: mouse TRPC4 channel inhibitors, dose response, cell-based, HEK293 TRPC4/mu-opioid, Fluo-4 calcium (AID 434942).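 Further: potency of inhibitors blocking the TRPC4 calcium response.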 Type of experiment: functional.

In experiment [3] the target is Alkaline phosphatase, placental type (Homo sapiens, UniProt P05187). Briefly: PLAP enzyme inhibitors, confirmation, biochemical, luminescence (AID 1512). Format: functional.
Experiment [4] deals with T2, Alkaline phosphatase, tissue-nonspecific isozyme (Homo sapiens, UniProt P05186).
T2 sequence (P05186 whole entry): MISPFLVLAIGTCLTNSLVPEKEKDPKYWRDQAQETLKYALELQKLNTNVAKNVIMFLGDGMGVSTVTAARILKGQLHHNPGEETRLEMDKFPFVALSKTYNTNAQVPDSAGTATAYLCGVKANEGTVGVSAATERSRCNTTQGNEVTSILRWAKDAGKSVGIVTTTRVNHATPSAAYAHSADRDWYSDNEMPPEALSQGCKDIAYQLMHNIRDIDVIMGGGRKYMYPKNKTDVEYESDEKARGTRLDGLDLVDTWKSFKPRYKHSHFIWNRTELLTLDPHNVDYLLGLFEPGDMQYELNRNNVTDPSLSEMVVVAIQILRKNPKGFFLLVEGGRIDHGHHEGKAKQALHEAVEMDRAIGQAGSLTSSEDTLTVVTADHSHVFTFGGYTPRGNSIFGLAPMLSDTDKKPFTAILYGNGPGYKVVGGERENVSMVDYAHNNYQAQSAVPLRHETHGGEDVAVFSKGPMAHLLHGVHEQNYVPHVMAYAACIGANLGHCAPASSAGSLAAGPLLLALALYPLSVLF
The experiment in a line: human TNAP enzyme inhibitors, SAR follow-up, biochemical, luminescent, dose response (AID 1056).

For the next experiment, the target named is Mu-type opioid receptor (Homo sapiens, UniProt P35372). Briefly: Counterscreen for agonists of heterodimerization of the mu 1 (OPRM1) and delta 1 (OPRD1) opioid receptors: Luminescence-based cell-based high throughput dose response assay to identify agonists of OPRM1 homodimerization. Type of experiment: functional. A general note: Counterscreens check selectivity or assay interference.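 Further: U2OS cells expressing OPRM1 and beta-arrestin as split beta-galactosidase partners.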

A further experiment addresses T3, Bcl-2-related protein A1 (Mus musculus, UniProt Q07440).
T3 sequence (Q07440 whole entry): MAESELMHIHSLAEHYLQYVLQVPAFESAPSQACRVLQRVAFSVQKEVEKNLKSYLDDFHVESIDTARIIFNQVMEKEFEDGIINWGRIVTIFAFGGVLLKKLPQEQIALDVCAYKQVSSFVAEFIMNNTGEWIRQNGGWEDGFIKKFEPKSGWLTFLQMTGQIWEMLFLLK
Format: functional.

Experiment [5] in a line: Fluorescence-based cell-based high throughput dose response assay for inhibitors of the interaction of nucleotide-binding oligomerization domain containing 2 (NOD2) and the receptor-interacting serine-threonine kinase 2 (RIPK2). Type of experiment: functional. The note with it: Homo sapiens.
The target in experiment [6] is T4, Type-1 angiotensin II receptor (Homo sapiens, UniProt P30556).
T4 sequence (P30556 whole entry): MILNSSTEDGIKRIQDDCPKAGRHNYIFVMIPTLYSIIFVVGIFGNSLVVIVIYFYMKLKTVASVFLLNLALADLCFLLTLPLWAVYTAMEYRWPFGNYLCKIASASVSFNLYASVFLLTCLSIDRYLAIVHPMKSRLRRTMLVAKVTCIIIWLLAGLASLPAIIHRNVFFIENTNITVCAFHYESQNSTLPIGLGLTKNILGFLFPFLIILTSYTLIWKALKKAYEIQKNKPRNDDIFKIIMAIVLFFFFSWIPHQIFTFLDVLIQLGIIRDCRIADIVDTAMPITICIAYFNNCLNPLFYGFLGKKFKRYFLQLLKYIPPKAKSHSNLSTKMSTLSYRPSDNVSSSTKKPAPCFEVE
Briefly: AT1 receptor agonists, dose response, selectivity assay for APJ receptor agonist project, cell-based, uHTS hits (AID 488865).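 Further: beta-arrestin recruitment to AT1 measured by enzyme fragment complementation luminescence.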 Format: functional.

Experiment [7] has as its target T5, Ubiquitin-conjugating enzyme E2 N (Homo sapiens, UniProt P61088).
T5 sequence (P61088 whole entry): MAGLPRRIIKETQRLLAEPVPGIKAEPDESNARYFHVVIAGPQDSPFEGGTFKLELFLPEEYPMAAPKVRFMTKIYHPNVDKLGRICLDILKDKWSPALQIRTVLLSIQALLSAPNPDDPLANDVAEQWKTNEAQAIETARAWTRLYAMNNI
Format: functional.

The target in experiment [8] is Delta-type opioid receptor (Homo sapiens, UniProt P41143). The experiment in a line: Counterscreen for agonists of heterodimerization of the mu 1 (OPRM1) and delta 1 (OPRD1) opioid receptors: Luminescence-based cell-based high throughput dose response assay to identify agonists of OPRD1 homodimerization. [Related pubchem assays (depositor defined):AID504326, AID504355, AID504692, AID504904, AID504905]. Format: functional.

Experiment [9] addresses 5-hydroxytryptamine receptor 5A (Homo sapiens, UniProt P47898). The experiment in a line: Counterscreen for agonists of OPRM1-OPRD1 heterodimerization: luminescence-based cell-based high throughput dose response assay to identify agonists of 5-hydroxytryptamine (serotonin) 5A receptor (HTR5A). [Related pubchem assays (depositor defined):AID504326, AID504355, AID504692, AID504904, AID504905]. Format: functional.

Experiment [10] concerns the target T5, Ubiquitin-conjugating enzyme E2 N. Type of experiment: functional. This is another data set of the same source.
Experiment [11] addresses Eukaryotic translation initiation factor 4E (Mus musculus, UniProt P63073). Briefly: eIF4E–eIF4G protein interaction inhibitors, dose response, biochemical, TR-FRET (AID 855).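 Further: potency for disrupting eIF4E binding to eIF4GI seen as loss of FRET.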 Format: functional. A general note: TR-FRET usually uses a lanthanide donor and a delayed reading to cut background.
In experiment [12] the target is Glyceraldehyde-3-phosphate dehydrogenase (Homo sapiens, UniProt P04406).
The target in experiment [13] is T6, Tyrosine-protein phosphatase non-receptor type 7 (Homo sapiens, UniProt P35236).
T6 sequence (P35236 whole entry): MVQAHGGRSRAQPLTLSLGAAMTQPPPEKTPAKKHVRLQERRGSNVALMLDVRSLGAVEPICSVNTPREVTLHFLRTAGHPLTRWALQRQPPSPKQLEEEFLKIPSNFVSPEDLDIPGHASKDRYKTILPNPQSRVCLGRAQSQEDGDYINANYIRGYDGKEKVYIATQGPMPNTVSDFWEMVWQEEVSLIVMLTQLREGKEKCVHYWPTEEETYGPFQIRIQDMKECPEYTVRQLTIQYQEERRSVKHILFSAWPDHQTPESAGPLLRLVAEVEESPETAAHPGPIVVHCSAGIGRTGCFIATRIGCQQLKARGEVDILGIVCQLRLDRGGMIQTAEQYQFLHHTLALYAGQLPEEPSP
Briefly: redox-dependent HePTP inhibition, mechanism study, biochemical, fluorescence (AID 2068). Type of experiment: functional.

In experiment [14] the target is Induced myeloid leukemia cell differentiation protein Mcl-1 (Homo sapiens, UniProt Q07820). Type of experiment: functional.
Experiment [15] has as its target T7, Voltage-gated N-type calcium channel alpha-1B subunit/Amyloid beta A4 precursor protein-binding family A member 1 (Homo sapiens, UniProt Q00975+Q02410). Type of experiment: protein assay.
In experiment [16] the target is T7, Voltage-gated N-type calcium channel alpha-1B subunit/Amyloid beta A4 precursor protein-binding family A member 1. Type of experiment: protein assay. This is another data set of the same source.
Experiment [17] has as its system HEK293. Briefly: cells. The note with it: Homo sapiens.
Experiment [18] relates to HEK293. The experiment in a line: cells. The note with it: Homo sapiens. This is another data set of the same source.
For another experiment, the target named is Nonstructural protein 1 (Influenza A virus, UniProt Q194T2). Format: functional, Influenza A virus (A/California/07/2009(H1N1)).
The target in experiment [19] is NACHT, LRR and PYD domains-containing protein 3 (Homo sapiens, UniProt Q96P20). The experiment in a line: NALP3 inhibitors in yeast, dose response, luminescent (AID 488799). Format: functional.
Experiment [20] has as its system HEK293. The experiment in a line: inhibitors of LMP1-driven NF-kB reporter, dose response, cell-based, HEK293, luciferase, cherry-pick (AID 588343). Type of experiment: functional. The note with it: Homo sapiens.
The next experiment relates to HT-1080. Briefly: cytotoxicity in HT1080 fibrosarcoma cells, cell-based, fluorescence readout (AID 620). Format: functional. The note with it: Homo sapiens.
Experiment [21] in a line: cytotoxicity in HEK-293T cells, dose response, cytotoxicity control for BCR NF-kB inhibitor project, luminescence, B-cell screen hits (AID 489021).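 Further: HEK-293T cells carrying an NF-kB luciferase reporter; cells exposed to compound for about 14 hours before viability readout.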 Format: functional, cell-based.
The target of experiment [22] is Luciferin 4-monooxygenase (Photinus pyralis, UniProt P08659). Briefly: Counter Screen for Luciferase-based Assay Positives. [Related pubchem assays: 620, 618, 411 ].

Calls of active or inactive are those of the source.

Alkaline phosphatase, placental type, sequence (P05187 whole entry): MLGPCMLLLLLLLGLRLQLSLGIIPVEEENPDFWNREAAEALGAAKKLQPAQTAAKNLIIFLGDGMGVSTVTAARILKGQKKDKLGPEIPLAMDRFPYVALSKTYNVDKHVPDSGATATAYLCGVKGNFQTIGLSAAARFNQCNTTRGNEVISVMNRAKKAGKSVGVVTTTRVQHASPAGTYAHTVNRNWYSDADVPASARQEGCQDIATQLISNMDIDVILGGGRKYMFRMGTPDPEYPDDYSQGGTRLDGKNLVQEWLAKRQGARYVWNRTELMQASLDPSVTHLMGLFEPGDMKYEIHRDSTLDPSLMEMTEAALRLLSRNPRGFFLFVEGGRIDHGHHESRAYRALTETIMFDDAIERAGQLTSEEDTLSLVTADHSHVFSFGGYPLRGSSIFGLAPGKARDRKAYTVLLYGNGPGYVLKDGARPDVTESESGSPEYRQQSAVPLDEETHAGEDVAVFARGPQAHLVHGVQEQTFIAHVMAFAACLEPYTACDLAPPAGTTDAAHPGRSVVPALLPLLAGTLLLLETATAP
Perilipin-1/ABHD5, sequence (Q8WTS1 whole entry, the tested form may be a part): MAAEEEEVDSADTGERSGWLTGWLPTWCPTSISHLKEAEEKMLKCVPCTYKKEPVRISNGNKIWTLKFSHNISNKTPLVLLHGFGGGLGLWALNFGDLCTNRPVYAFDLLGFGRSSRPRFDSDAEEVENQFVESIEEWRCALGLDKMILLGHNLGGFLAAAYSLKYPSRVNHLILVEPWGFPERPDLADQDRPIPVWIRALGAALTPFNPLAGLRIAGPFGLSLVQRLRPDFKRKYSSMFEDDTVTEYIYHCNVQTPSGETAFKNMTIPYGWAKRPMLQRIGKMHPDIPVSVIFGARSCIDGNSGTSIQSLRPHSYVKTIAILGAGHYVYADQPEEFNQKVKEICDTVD
Perilipin-1/ABHD5, sequence (O60240 whole entry, the tested form may be a part): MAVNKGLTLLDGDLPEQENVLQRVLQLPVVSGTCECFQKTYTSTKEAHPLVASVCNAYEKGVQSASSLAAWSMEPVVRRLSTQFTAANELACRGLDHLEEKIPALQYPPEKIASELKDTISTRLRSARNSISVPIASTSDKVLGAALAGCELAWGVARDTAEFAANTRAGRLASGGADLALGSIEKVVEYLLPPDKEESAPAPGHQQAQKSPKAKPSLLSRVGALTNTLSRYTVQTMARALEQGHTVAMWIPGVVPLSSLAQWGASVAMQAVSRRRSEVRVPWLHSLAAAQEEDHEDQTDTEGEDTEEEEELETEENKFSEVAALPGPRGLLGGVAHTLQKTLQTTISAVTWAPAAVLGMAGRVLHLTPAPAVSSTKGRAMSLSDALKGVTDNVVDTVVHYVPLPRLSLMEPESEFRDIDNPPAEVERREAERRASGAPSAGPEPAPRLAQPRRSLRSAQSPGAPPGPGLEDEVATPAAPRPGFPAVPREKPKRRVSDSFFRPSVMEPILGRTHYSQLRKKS
T7 sequence (Q00975 whole entry): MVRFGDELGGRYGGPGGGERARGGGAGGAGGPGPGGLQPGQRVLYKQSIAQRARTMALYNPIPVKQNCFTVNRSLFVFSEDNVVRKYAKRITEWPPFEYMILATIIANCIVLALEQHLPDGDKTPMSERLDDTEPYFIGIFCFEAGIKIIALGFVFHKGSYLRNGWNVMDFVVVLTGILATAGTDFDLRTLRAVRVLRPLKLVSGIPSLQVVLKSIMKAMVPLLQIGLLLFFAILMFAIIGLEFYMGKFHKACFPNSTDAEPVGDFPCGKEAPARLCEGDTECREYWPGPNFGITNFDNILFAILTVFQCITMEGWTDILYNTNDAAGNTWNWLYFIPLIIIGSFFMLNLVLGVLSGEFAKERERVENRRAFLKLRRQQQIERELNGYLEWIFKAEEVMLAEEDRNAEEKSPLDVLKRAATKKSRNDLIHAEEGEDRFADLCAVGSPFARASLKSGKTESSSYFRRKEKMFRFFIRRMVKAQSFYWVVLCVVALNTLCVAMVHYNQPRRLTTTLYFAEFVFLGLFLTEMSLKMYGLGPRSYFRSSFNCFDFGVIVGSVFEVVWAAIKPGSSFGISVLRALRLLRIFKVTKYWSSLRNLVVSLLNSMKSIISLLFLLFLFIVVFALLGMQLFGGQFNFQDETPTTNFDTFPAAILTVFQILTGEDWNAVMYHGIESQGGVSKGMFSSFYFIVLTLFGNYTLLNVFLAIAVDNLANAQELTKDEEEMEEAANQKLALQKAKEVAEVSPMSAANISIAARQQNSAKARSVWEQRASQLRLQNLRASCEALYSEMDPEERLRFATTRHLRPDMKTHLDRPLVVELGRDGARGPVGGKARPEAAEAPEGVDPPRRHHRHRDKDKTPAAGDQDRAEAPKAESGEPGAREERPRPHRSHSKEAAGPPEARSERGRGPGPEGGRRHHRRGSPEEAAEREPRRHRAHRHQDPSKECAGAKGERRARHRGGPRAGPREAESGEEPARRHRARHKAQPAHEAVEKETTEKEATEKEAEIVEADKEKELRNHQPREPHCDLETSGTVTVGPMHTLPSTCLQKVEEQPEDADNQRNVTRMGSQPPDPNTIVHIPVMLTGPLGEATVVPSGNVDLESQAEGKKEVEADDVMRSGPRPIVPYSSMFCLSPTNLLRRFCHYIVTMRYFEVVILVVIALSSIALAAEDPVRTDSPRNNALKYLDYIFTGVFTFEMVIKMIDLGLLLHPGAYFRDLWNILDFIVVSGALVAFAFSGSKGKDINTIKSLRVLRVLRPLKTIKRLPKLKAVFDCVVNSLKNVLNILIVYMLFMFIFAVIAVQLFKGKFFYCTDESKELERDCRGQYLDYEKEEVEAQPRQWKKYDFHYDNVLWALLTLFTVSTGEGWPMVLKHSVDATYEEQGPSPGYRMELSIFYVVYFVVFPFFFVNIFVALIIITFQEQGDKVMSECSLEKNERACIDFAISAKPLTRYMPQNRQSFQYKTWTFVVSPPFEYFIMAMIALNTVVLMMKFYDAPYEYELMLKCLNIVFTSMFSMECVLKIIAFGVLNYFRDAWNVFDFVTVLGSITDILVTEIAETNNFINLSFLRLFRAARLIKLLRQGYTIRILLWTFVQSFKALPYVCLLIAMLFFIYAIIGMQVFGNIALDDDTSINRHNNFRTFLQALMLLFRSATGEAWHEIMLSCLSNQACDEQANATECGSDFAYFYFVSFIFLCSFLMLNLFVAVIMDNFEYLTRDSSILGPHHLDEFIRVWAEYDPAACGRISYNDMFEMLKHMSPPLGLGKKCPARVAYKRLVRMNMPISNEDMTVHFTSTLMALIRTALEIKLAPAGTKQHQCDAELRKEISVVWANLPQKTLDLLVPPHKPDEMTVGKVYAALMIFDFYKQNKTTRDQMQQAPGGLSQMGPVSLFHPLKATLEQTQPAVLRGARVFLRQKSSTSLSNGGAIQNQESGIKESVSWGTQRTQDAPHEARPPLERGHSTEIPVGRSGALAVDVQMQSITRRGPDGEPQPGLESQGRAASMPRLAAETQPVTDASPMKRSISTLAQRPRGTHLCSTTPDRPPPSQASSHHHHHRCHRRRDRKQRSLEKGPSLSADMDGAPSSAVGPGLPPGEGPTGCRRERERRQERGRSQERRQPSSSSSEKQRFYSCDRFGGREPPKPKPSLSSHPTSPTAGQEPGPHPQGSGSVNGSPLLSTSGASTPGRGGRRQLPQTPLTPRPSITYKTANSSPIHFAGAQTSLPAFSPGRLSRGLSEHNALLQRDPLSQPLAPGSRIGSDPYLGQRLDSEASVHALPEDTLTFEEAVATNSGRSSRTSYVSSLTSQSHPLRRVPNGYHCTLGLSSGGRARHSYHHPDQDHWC
T7 sequence (Q02410 whole entry): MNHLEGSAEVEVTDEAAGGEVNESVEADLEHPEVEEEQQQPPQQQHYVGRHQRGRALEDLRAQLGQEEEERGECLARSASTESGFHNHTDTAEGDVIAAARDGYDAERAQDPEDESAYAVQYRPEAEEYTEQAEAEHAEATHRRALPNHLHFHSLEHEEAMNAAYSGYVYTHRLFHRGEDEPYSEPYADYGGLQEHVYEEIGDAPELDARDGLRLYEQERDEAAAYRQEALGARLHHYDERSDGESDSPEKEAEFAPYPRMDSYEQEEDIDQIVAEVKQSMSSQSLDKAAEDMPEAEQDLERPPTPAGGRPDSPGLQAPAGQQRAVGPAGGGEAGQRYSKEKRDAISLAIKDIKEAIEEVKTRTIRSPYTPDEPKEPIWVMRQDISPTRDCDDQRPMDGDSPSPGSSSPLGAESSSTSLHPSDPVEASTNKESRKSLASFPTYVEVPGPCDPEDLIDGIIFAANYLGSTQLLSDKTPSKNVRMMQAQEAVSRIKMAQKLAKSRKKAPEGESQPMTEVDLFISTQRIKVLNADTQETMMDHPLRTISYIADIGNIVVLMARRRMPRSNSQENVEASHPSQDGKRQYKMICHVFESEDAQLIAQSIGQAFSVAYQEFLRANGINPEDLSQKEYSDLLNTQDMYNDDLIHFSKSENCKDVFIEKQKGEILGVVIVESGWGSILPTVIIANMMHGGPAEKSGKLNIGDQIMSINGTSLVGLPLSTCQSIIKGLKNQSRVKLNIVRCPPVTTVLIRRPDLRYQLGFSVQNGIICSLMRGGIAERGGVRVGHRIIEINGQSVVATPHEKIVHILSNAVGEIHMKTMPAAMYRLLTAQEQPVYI
1-acylglycerol-3-phosphate O-acyltransferase ABHD5/Perilipin-5, sequence (Q00G26 whole entry, the tested form may be a part): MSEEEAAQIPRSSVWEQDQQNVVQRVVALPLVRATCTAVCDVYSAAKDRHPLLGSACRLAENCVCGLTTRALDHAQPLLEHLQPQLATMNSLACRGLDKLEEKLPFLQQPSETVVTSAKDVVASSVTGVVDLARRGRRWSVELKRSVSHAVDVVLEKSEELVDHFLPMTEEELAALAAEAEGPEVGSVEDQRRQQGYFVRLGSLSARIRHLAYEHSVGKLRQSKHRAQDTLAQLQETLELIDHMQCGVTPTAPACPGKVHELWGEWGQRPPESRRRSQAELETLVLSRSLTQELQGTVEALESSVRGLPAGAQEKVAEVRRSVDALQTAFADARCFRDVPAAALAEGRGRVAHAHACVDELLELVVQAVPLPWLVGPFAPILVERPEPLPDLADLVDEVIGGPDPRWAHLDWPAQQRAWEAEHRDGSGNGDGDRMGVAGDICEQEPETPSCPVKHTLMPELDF
1-acylglycerol-3-phosphate O-acyltransferase ABHD5/Perilipin-5, sequence (Q8WTS1 whole entry, the tested form may be a part): as the sequence (Q8WTS1 whole entry, the tested form may be a part) above

With `CCOc1cc2c3c(c1)C(C)=CC(C)(C)N3C(=O)C2=O`, the IC50 was 15 µM (inactive) in [1] and 15.3 µM (inactive) on Perilipin-1/ABHD5.

Regarding `Cc1ccc(O)c(CNc2nc3ccccc3[nH]2)c1`, the EC50 in experiment [2] is 1.5 µM (active).

For `Cn1ccnc1SCC(=O)c1ccc(O)c(O)c1`, the IC50 was 8.56 µM (active) in experiment [3] and 75.7 µM (active) in experiment [4].

As for `CCc1ccc2nc(N(CCCN(C)C)C(=O)c3ccc(S(=O)(=O)N4CCc5ccccc5C4)cc3)sc2c1`, the EC50 on Mu-type opioid receptor was > 92.5 µM (inactive); in experiment [6], > 100 µM (inactive); in experiment [8] it was > 92.5 µM (inactive); in [9], > 92.5 µM (inactive). For the same compound, the IC50 at Bcl-2-related protein A1 is > 20 µM (inactive); in experiment [5], 80 µM (inactive); in [7], 4.58 µM (active); in experiment [10], 4.49 µM (active).

On to `CC1(C)c2ccccc2N2CC(=O)NC21/C=C/c1ccco1` (configuration not stated), for which the IC50 in [1] was 20.6 µM (inactive); in experiment [11], 50 µM (inactive); at Perilipin-1/ABHD5, 20.8 µM (inactive).

Turning to `Clc1ccccc1-c1nnc2c3cnn(-c4ccccc4)c3ncn12`, the figures for the IC50 in experiment [3], in experiment [4] and in [12] were > 100 µM (inactive), > 100 µM (inactive) and > 100 µM (not active), respectively.

As to `COc1ccc(NC(=O)Nc2ccc3nc(-c4ccco4)c(-c4ccco4)nc3c2)cc1`, in [13], the IC50 is 12.2 µM (active).

For the compound `CCOC(=O)c1ccc(N=Nc2c(O)nc(O)c(C#N)c2C)cc1`, the IC50 in experiment [14] is 3.18 µM (active); in experiment [15], > 56.8 µM (not active); in experiment [16], > 50 µM (inactive).

Consider `O=C(NCCN1CCOCC1)c1cc2sccc2n1Cc1ccc(F)cc1`, for which the EC50 was 5.96 µM (active) in [2], > 59.7 µM (inactive) in the experiment with HEK293 [17] and > 59.7 µM (inactive) in the experiment on HEK293 [18].

Consider `O=C(Nc1cccc(Cl)c1)c1cc(N=Nc2ccc([N+](=O)[O-])cc2Cl)ccc1O`, for which the IC50 is 22.1 µM (active) on Nonstructural protein 1 and 1.34 µM (active) in experiment [19].

Consider `CCc1ccc(-c2nnn(CCC(=O)OC)n2)cc1`, for which the AC50 with HEK293 [20] was 16.2 µM (active). Also, the EC50 in the experiment on HT-1080 was > 50 µM (not active); in experiment [22], 5.58 µM (active). In addition, the IC50 in experiment [21] is > 80 µM (inactive).
